Test results published in US7705009B2, “4-aminopyrimidine-5-thione derivatives” (Hoffman-La Roche Inc., priority 2005, dated 2010).
Read-outs that look alike come from different tables or passages of the source.

Tests used:
human cyclin E-CDK2 = human cyclin E-CDK2 (Homo sapiens, UniProt P24941); experiment: CDK2 HTRF kinase assay (Ki measurement); assay type: biochemical
Protocol: (§1) To determine inhibition of Cdk4, Cdk2 and Cdk1 activity, kinase assays were conducted using FlashPlate™ assays (NEN™-Life Science Products). FlashPlate assays were performed using recombinant human cyclin B-CDK1, human cyclin E-CDK2 or human cyclin D1-CDK4 complexes. GST-cyclinE (GST-cycE), CDK2, GST-cyclinB (GST-cycB), CDK1, GST-CDK4 and cyclin D1 (cycD1) cDNA clones in baculovirus vectors were provided by Dr. W. Harper at the Baylor College of Medicine, Houston, Tex.
(§2) Alternatively, inhibition activity may be measured using Ki. […] These were done in 96-well format and read in 384-well plate format. The assays were run at 3× their respective Kms for ATP.
(§3) Twenty microliters were added to the wells of a 96-well plate. […] Blank wells without CDK4 were included. The plates were incubated at 37° C. for 30 minutes with shaking. […] After 30 minutes at 37° C., 15 μl/well of 3 nM Lance-Eu-W1024 labeled anti-rabbit IgG and 60 nM Allophycocyanin conjugated anti-His6 (PerkinElmer Life Sciences) in 25 mM Hepes, pH 7.0, 0.5 mg/ml BSA were added. Following a one hour incubation at 37 deg C., 35 μl of each well, in duplicate, were transferred to 384-well black plates. The plates were read using either ViewLux or Victor V readers (PerkinElmer Life Sciences) using an excitation wavelength of 340 nm and dual emission wavelengths of 615 nm and 665 nm.
(§4) The CDK1 and CDK2 assays were similarly run except for small differences in reagent and protein concentrations:
The compound and enzyme buffers for both assays contained 10 mM MgCl2.

human cyclin D1-CDK4 = human cyclin D1-CDK4 (Homo sapiens, UniProt P11802); experiment: CDK4 HTRF kinase assay (Ki measurement); assay type: biochemical; settings: ATP at 3x Km
Protocol: To determine inhibition of Cdk4, Cdk2 and Cdk1 activity, kinase assays were conducted using FlashPlateTM assays (NENTM-Life Science Products). […] W. Harper at the Baylor College of Medicine, Houston, Tex. Proteins were co-expressed in High FiveTM insect cells and the complex was purified on glutathione Sepharose resin (Pharmacia, Piscataway, N.J.) as previously described (Harper, J. W. et al. Cell 1993, 75, 805-816). A 6×-Histidine tagged […]) was used as the substrate for the cycD1-CDK4, cycB-CDK1 and the cycE-CDK2 assays (the expression plasmid was provided by Dr. Veronica Sullivan, Department of Molecular Virology, Roche Research Centre, Welwyn Garden City, United Kingdom). The Rb protein is a natural substrate for phosphorylation by CDK4, CDK2 and CDK1 (see Herwig and Strauss Eur. J. Biochem. Vol. 246 (1997) pp. 581-601 and the references cited therein). Alternatively, inhibition activity may be measured using Ki. Using the protein constructs described above in Example 19A above, CDK1, CDK2, and CDK4 HTRF assays were set up. These were done in 96-well format and read in 384-well plate format. The assays were run at 3× their respective Kms for ATP. In the CDK4 assay, test compounds were diluted to 3× their final concentrations in 25 mM Hepes, pH 7.0, 6.25 mM MgCl2, 1.5 mM DTT, 135 μM ATP. The DMSO concentration was no greater than 4.76%. Twenty microliters were added to the wells of a 96-well plate. The kinase reaction was initiated by the addition of 40 μl/well of a solution containing 0.185 μM Rb and 2.25 μg/ml CDK4 in 25 mM Hepes, pH 7.0, 6.25 mM MgCl2, 0.003% Tween-20, 0.3 mg/ml BSA, 1.5 mM DTT. Blank wells without CDK4 were included. The plates were incubated at 37° C. for 30 minutes with shaking. The kinase reaction was terminated by the addition of 15 μl/well of 1.6 uM anti-phospho-Rb ([…]) antibody (Cell Signaling Inc.) in 25 mM Hepes, pH 7.0, 24 mM EDTA, 0.2 mg/ml BSA. After 30 minutes at 37° C., 15 μl/well of 3 nM Lance-Eu-W1024 labeled anti-rabbit IgG and 60 nM Allophycocyanin conjugated anti-His6 (PerkinElmer Life Sciences) in 25 mM Hepes, pH 7.0, 0.5 mg/ml BSA were added. Following a one hour incubation at 37 deg C., 35 μl of each well, in duplicate, were transferred to 384-well black plates. The plates were read using either ViewLux or Victor V readers (PerkinElmer Life Sciences) using an excitation wavelength of 340 nm and dual emission wavelengths of 615 nm and 665 nm. IC50 values (the concentration of test compounds reducing the assay control fluorescence read-out by 50%) were first calculated from net readings at 665 nm, normalized for europium readings at 615 nm. For ATP competitive inhibitors, the Ki values were calculated according to the following equation: […]

human cyclin B-CDK1 = human cyclin B-CDK1 (Homo sapiens, UniProt P06493); experiment: CDK1 HTRF kinase assay (Ki measurement); assay type: biochemical; settings: ATP at 3x Km
Protocol: as §1, §2
as §3, with “nm. […] For ATP competitive inhibitors, the Ki values were calculated according to the following equation: Ki=IC50/(1+S/Km) where S refers to the substrate concentration and Km refers to the Michaelis-Menten constant.” for “nm.”
as §4
The compound and enzyme buffers for both assays contained 10 mM MgCl2. […] CDK1 at a reagent concentration of 0.15 ng/ul and CDK2 at a reagent concentration of 0.06 ng/ul were used.

[1] = tested on: HCT116 colorectal carcinoma cell line; experiment: Tetrazolium dye proliferation assay (MTT assay); assay type: cell-based; settings: Homo sapiens, HCT-116, HCT116 cells
Protocol: Proliferation was evaluated by the tetrazolium dye assay according to the procedure of Denizot and Lang (Denizot, F. and Lang, R. J Immunol Methods 1986, 89, 271-277). The cell line used was HCT116, a colorectal carcinoma cell line obtained from the American Type Cell Culture Collection (ATCC; Rockville, Md.). The cells were grown in McCoy's 5A medium supplemented with 10% FCS and L-glutamine.
Cells were plated at the appropriate seeding density to give logarithmic growth over the course of the assay in a 96-well tissue culture plate. Plates were incubated overnight at 37° C. in a humidified incubator with 5% CO2. The next day, test compounds were serially diluted to four times the final concentration in the appropriate medium containing 1.2% DMSO. One-fourth final volume of each dilution was added in duplicate to the plates containing cells. The same volume of 1.2% DMSO in medium was added to a row of “control wells” such that the final concentration of DMSO in each well was 0.3%. Wells to which no cells were added served as the “blank.” Wells to which no inhibitor was added served as “no inhibitor control.” The plates were) returned to the incubator, and at set time points (determined by their growth curves) plates were analyzed as described below.
3-(4,5-dimethylthiazole-2-yl)-2,5-diphenyl-2H-tetrazolium bromide (thiazolyl blue; MTT; Sigma) was added to each well to yield a final concentration of 1 mg/ml. Plates were returned to the incubator for 2.5-3 hours at 37° C. The MTT-containing medium was removed and the resulting formazan metabolite was solubilized in 100% ethanol with shaking for 15 minutes at room temperature. Absorbance readings were taken in a microtiter plate reader (Dynatech and Molecular Devices plate readers were used interchangeably) at a wavelength of 570 nm with a 650 nm reference. Percent inhibition (% INH) is calculated by subtracting the absorbance of the blank well from all wells, then subtracting the ratio of the average absorbance of each test duplicate (SAVE) by the average of the controls (CAVE) from 1.00. The final number is then multiplied by 100 (% INH=(1.00−SAVE/CAVE)×100). The concentration at which 50% inhibition of cell proliferation is obtained (the IC50) is determined from the linear regression of a plot of the logarithm of the concentration versus percent inhibition.

[2] = HTRF assay, ATP at 3x Km, read-out: Ki CDK2

Sequence of human cyclin B-CDK1 (P06493 whole entry): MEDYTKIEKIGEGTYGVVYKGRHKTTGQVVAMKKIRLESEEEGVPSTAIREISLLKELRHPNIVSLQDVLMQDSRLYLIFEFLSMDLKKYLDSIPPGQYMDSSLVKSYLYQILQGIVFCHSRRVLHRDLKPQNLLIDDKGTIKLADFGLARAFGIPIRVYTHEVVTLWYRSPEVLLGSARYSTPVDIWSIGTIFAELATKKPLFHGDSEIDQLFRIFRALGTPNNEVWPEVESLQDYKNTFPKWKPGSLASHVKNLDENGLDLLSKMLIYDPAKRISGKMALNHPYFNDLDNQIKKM
Sequence of human cyclin B-CDK1 (P14635 whole entry partner): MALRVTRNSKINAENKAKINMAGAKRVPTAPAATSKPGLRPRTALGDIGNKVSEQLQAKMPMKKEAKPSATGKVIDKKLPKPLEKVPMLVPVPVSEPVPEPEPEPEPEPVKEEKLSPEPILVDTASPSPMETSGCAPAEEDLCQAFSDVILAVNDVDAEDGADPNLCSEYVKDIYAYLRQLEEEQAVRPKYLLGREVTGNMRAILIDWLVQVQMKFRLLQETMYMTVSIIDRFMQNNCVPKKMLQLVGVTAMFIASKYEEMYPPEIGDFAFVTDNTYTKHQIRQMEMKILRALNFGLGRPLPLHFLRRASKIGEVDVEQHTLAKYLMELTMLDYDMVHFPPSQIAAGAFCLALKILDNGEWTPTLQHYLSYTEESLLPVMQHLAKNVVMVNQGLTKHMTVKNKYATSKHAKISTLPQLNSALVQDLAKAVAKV
Sequence of human cyclin D1-CDK4 (P11802 whole entry): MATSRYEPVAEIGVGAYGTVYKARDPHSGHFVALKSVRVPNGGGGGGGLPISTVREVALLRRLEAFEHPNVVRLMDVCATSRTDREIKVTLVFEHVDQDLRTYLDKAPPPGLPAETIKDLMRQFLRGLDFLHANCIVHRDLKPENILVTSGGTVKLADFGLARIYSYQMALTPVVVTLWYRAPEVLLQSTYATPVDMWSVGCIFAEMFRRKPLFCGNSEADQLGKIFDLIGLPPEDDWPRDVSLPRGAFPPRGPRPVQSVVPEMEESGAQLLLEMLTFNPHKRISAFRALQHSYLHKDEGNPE
Sequence of human cyclin D1-CDK4 (P24385 whole entry partner): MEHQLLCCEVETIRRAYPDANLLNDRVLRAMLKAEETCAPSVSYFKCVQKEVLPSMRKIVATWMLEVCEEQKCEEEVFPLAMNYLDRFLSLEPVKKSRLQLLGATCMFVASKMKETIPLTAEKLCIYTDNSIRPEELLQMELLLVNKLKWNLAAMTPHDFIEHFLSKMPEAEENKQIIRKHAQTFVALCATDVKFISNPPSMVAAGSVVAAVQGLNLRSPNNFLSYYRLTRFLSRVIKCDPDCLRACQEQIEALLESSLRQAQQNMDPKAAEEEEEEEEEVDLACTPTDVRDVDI

SMILES	Ki (human cyclin E-CDK2; [2]) [nM]	Ki (human cyclin D1-CDK4) [nM]	Ki (human cyclin B-CDK1) [nM]	IC50 [1] [nM]	Ki (human cyclin E-CDK2) [nM]
COc1ccc(F)c(F)c1C(=S)c1cnc(N[C@H]2CC[C@H](N(C)S(C)(=O)=O)CC2)nc1N [Example 3, N-{4-[4-Amino-5-(2,3-difluoro-6-methoxy-thiobenzoyl)-pyrimidin-2-ylamino]-cyclohexyl}-N-methylmethanesulfonamide]	0.27	1.33	0.42	13	–
COc1ccc(F)c(F)c1C(=S)c1cnc(Nc2ccc(S(N)(=O)=O)cc2)nc1N [Example 14, 4-[4-Amino-5-(2,3-difluoro-6-methoxy-thiobenzoyl)-pyrimidin-2-ylamino]-benzenesulfonamide]	1	3	3	32	–
COc1ccc(F)cc1C(=S)c1cnc(NC2CCN(S(C)(=O)=O)CC2)nc1N [Example 5, [4-Amino-2-(1-methanesulfonyl-piperidin-4-ylamino)-pyrimidin-5-yl]-(5-fluoro-2-methoxy-phenyl)-methanethione]	–	1.3	< 10	81	1.3
COc1ccc(F)c(F)c1C(=S)c1cnc(NC2CCN(S(N)(=O)=O)CC2)nc1N [Example 4, 4-[4-Amino-5-(2,3-difluoro-6-methoxy-thiobenzoyl)-pyrimidin-2-ylamino]-piperidine-1-sulfonic acid amide]	< 1	< 1	< 3	3	–
COc1ccc(F)c(F)c1C(=S)c1cnc(N[C@H]2CC[C@H](NS(C)(=O)=O)CC2)nc1N [Example 2, N-{4-[4-Amino-5-(2,3-difluoro-6-methoxy-thiobenzoyl)-pyrimidin-2-ylamino]-cyclohexyl}methanesulfonamide]	0.18	0.6	0.27	12	–
